Results reported in publication PMC3857281, “Molecular Mechanism of Inhibition of the Mitochondrial Carnitine/Acylcarnitine Transporter by Omeprazole Revealed by Proteoliposome Assay, Mutagenesis and Bioinformatics” (PLoS ONE, 2013).
Substitutions are numbered along the chain they refer to.

Key:
Format in all cases: biochemical
[1] = molecular target: T1, mitochondrial carnitine/acylcarnitine transporter (CACT) (Rattus norvegicus, UniProt P97521); test: [3H]carnitine/carnitine antiport in proteoliposomes
T1 construct: gene Slc25a20; recombinant WT rat CACT expressed in E. coli, reconstituted in liposomes
T1 sequence (P97521 2-301): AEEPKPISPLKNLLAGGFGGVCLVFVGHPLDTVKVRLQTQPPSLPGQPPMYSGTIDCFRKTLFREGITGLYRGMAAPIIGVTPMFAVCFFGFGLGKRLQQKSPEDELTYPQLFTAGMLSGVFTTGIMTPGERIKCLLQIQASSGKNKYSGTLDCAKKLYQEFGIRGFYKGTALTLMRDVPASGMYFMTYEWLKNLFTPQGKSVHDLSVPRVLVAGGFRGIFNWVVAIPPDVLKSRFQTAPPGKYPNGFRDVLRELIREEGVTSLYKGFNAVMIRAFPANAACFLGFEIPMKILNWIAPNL

[2] = molecular target: T2, mitochondrial carnitine/acylcarnitine transporter (CACT), C136S mutant (Rattus norvegicus, UniProt P97521, C136S); test: […] inhibition of antiport after […] omeprazole and removal of unreacted compound
T2 construct: gene Slc25a20; recombinant mutant rat CACT reconstituted in liposomes
T2 sequence (P97521 2-301 C136S): T1 sequence (P97521 2-301) with C135S

[3] = molecular target: T1, mitochondrial carnitine/acylcarnitine transporter (CACT); test: [3H]carnitine/carnitine antiport in proteoliposomes; acid-activated omeprazole (non-activated compound inactive)
[4] = molecular target: T3, mitochondrial carnitine/acylcarnitine transporter (CACT), C283A mutant (Rattus norvegicus, UniProt P97521, C283A); test: […] inhibition of antiport after […] omeprazole and removal of unreacted compound
T3 construct: gene Slc25a20; recombinant mutant rat CACT reconstituted in liposomes
T3 sequence (P97521 2-301 C283A): T1 sequence (P97521 2-301) with C282A

Structure (SMILES): Cc1c(OCC(F)(F)F)ccnc1C[S+]([O-])c1nc2ccccc2[nH]1 (centres unmarked) [lansoprazole]
- IC50 ([1]; read-out: IC50): 80 µM

Structure (SMILES): COc1ccc2[nH]c([S+]([O-])Cc3ncc(C)c(OC)c3C)nc2c1 (centres unmarked) [omeprazole]
- inhibition at 30 µM [2]: 59%
- IC50 [3]: 5.4 µM
- inhibition at 30 µM [4]: 53%

Structure (SMILES): COc1ccnc(C[S+]([O-])c2nc3ccc(OC(F)F)cc3[nH]2)c1OC (centres unmarked) [pantoprazole]
- IC50 [1]: 6.4 µM
